Patent publication US20040057926A1, “Modulation of the immune response through the manipulation of arginine levels” (LSU Medical Center, priority 2002, published 2004)

B1: CagA: recombinant H. pylori protein CagA (protein, UniProt P55980 1-1186, looked up)
Cytotoxicity-associated …: MTNETIDQTRTPDQTQSQTAFDPQQFINNLQVAFIKVDNVVASFDPDQKPIVDKNDRDNRQAFDGISQLREEYSNKAIKNPTKKNQYFSDFIDKSNDLINKDNLIDVESSTKSFQKFGDQRYQIFTSWVSHQKDPSKINTRSIRNFMENIIQPPIPDDKEKAEFLKSAKQSFAGIIIGNQIRTDQKFMGVFDESLKERQEAEKNGGPTGGDWLDIFLSFIFNKKQSSDVKEAINQEPVPHVQPDIATTTTDIQGLPPEARDLLDERGNFSKFTLGDMEMLDVEGVADIDPNYKFNQLLIHNNALSSVLMGSHNGIEPEKVSLLYAGNGGFGDKHDWNATVGYKDQQGNNVATLINVHMKNGSGLVIAGGEKGINNPSFYLYKEDQLTGSQRALSQEEIRNKVDFMEFLAQNNTKLDNLSEKEKEKFQNEIEDFQKDSKAYLDALGNDRIAFVSKKDTKHSALITEFNNGDLSYTLKDYGKKADKALDREKNVTLQGSLKHDGVMFVDYSNFKYTNASKNPNKGVGATNGVSHLEAGFNKVAVFNLPDLNNLAITSFVRRNLENKLTAKGLSLQEANKLIKDFLSSNKELAGKALNFNKAVAEAKSTGNYDEVKKAQKDLEKSLRKREHLEKEVEKKLESKSGNKNKMEAKAQANSQKDEIFALINKEANRDARAIAYTQNLKGIKRELSDKLEKISKDLKDFSKSFDEFKNGKNKDFSKAEETLKALKGSVKDLGINPEWISKVENLNAALNEFKNGKNKDFSKVTQAKSDLENSVKDVIINQKVTDKVDNLNQAVSVAKAMGDFSRVEQVLADLKNFSKEQLAQQAQKNEDFNTGKNSELYQSVKNSVNKTLVGNGLSGIEATALAKNFSDIKKELNEKFKNFNNNNNGLKNSTEPIYAKVNKKKTGQVASPEEPIYTQVAKKVNAKIDRLNQIASGLGGVGQAAGFPLKRHDKVDDLSKVGLSASPEPIYATIDDLGGPFPLKRHDKVDDLSKVGRSRNQELAQKIDNLNQAVSEAKAGFFGNLEQTIDKLKDSTKKNVMNLYVESAKKVPASLSAKLDNYAINSHTRINSNIQNGAINEKATGMLTQKNPEWLKLVNDKIVAHNVGSVSLSEYDKIGFNQKNMKDYSDSFKFSTKLNNAVKDIKSGFTHFLANAFSTGYYCLARENAEHGIKNVNTKGGFQKS

System: T-cells
Assay: Lysosome and proteasome inhibition, CD3ζ expression in T-cells
Type: cell-based, human
Conditions: lactacystin 2.5 μM, bafylomycin A1 1 μM
Protocol: To inhibit lysosome function 2×10^6 T-cells cultured in the presence or absence of L-arginine, were treated with 1 μM bafylomycin A1 (Calbiochem, San Diego, Calif.) or 1 μM folimycin (Calbiochem) during the course of the experiments begining at time 0 (start of the cultures), 24, 48 and 72 hours after stimulation. To inhibit proteasome activity 2.5 μM lactacystin (Calbiochem) was added to the cultures at the same time points. DMSO was used as a control vehicle in all the cases. The CD3ζ expression was tested by flow cytometry 24 hours after the addition of the inhibitors.
With `CO/C1=C\C(C)=C\[C@@H](C)[C@@H](O)[C@@H](C)C/C(C)=C/C=C/[C@H](OC)[C@@H]([C@@H](C)[C@@H](O)[C@H](C)[C@@]2(O)C[C@@H](O)[C@H](C)[C@@H](C(C)C)O2)OC1=O` [bafilomicyn, bafylomycin A1] the “decrease of CD3ζ upon stimulation with proteosome or lysosome inhibitor” value was “failed to prevent the decrease of CD3ζ upon stimulation”. For `CC(=O)N[C@@H](CSC(=O)[C@]1([C@@H](O)C(C)C)NC(=O)[C@H](C)[C@@H]1O)C(=O)O` [lactacystin], the “decrease of CD3ζ upon stimulation with proteosome or lysosome inhibitor” value was “failed to prevent the decrease of CD3ζ upon stimulation”.

System: not given
Assay: not given
Type: cell-based
Conditions: within 24 h, trypan blue exclusion
Protocol: To further explore possible mechanisms leading to a decreased T-cell response induced by the H. pylori sonicate, various aspects of T-cell signal transduction were studied. […] The expression of the CD3ζ chain, the main signaling element of the T-cell antigen receptor, were then tested. […] Harris, P. R., et al. J. Infect. Dis. 178, pp. 1516-1520 (1998); Zhang, Q. B., et al. Gut 38, pp. 841-845 (1996). Therefore some of these H. pylori proteins were tested to determine whether they could reduce CD3ζ expression. The recombinant proteins CagA, VacA, urease A (UreA), urease B (UreB) were titrated up to 10 μg/ml, a concentration where they caused cell death within 24 h as determined by trypan blue exclusion. […] Harris, P. R., et al. J. Infect. Dis. 178, pp. 1516-1520 (1998); Pai, R., et al. Biochem. Biophys. Res. Commun. 262, pp. 245-250 (1999); Rudnicka, W., et al. J. Physiol Pharmacol. 49, pp. 111-119 (1998); Tanahashi, T., et al. Infect. Immun. 68, pp. 664-671 (2000).
In the case of UreB: recombinant H. pylori urease B, the “concentration where they caused cell death” value is reported as 10000 ng/mL. For `NC(N)=O` [urea], the “concentration where they caused cell death” value was 10000 ng/mL. With B1 the “concentration where they caused cell death” value was 10000 ng/mL.

System: Jurkat cells
Assay: Co-culture in transwells of stimulated PM and Jurkat cells, CD3ζ expression
Type: cell-based
Conditions: NOHA 100 μM, Nor-NOHA 50 μM, L-Arg 2 mM, L-NIL 5 μg/ml, catalase 200 U/ml, L-NMMA, L-NNA, L-NAME 1 mM
Protocol: PM were cultured in 6 well plates in RPMI containing 150 μM L-Arg and stimulated with murine rIL-4 (50 U/ml) and murine rIL-13 (50 ng/ml), or murine rIFN-γ (100 U/ml) for 24 hours. Then 1×10^6 normal T-cells stimulated with anti-CD3 plus anti-CD28 or 1×10^6 Jurkat cells, were cultured in the top chamber of a transwell system having 0.4 μm pores (Falcon, Franklin lakes, N.J.). CD3ζ expression was measured in Jurkat cells or T lymphocytes at different time points. PM were detached using trypsin/EDTA and the expression of protein and RNA for CAT-2B, ASE I, ASE II and iNOS was tested by western blot and northern blot respectively. Cytoplasmic extracts from PM were used to test ASE activity. Supernatants from stimulated PM were used to measure NO production using the Griess reagent method (Molecular Probes, Eugene, Oreg.). In addition, the extra-cellular concentration of L-Arg was tested in supernatants by HPLC (Dr. Gu Yao Wu laboratory, University of Texas) as described previously. O'Quinn, P. R., D. A. Knabe, and G. Wu. 2002. Arginine catabolism in lactating porcine mammary tissue. J Anim Sci. 80:467-474.
Flow cytometry analysis was performed as previously described. Taheri, F., J. B. Ochoa, Z. Faghiri, K. Culotta, H. J. Park, M. S. Lan, A. H. Zea, and A. C. Ochoa. 2001. L-Arginine regulates the expression of the T-cell receptor zeta chain (CD3zeta) in Jurkat cells. Clin Cancer Res 7:958s-965s. Briefly, 5×10^5 Jurkat cells or T lymphocytes were washed once with Dulbecco phosphate-buffered saline 1× (D-PBS) and resuspended in 200 μL of D-PBS containing 1 μg of anti-CD3ε or isotype control. Cells were incubated for 15 min at 4° C., washed with D-PBS and resuspended in 200 μl D-PBS containing 500 μg/ml of digitonin plus 1 μg of anti-CD3ζ or 1 μg of isotypic control. Cells were incubated for 8 minutes after which they were washed and resuspended in 400 μl of D-PBS. Fluorescence acquisition and analysis were done using a Coulter-EPICS XL flow cytometer (Beckman-Coulter) with a 488 nm argon laser. The data were expressed as mean channel fluorescence intensity (MFI).
In the case of `CC(=N)NCCCC[C@H](N)C(=O)O` [L-NIL], the “CD3ζ in Jurkat cells co-cultured with PM stimulated with IL-4+IL-13” value (“CD3ζ in Jurkat cells co-cultured” below) is reported as “did not prevent CD3ζ down-regulation”. In the case of `N=C(NCCC[C@H](N)C(=O)O)N[N+](=O)[O-]` [L-NNA, N-NO2-L-Arg], the “CD3ζ in Jurkat cells co-cultured” value is reported as “did not prevent CD3ζ decrease”. With `COC(=O)[C@@H](N)CCCNC(=N)N[N+](=O)[O-]` [L-NAME, N-NO2-L-Arg-OMe] the “CD3ζ in Jurkat cells co-cultured” value was “did not prevent CD3ζ decrease”. With `CNC(=N)NCCC[C@H](N)C(=O)O` [NMMA, L-mono-methyl-L-Arg] the “CD3ζ in Jurkat cells co-cultured” value was “partially prevented the CD3ζ down-regulation”. In the case of Catalase, the “CD3ζ in Jurkat cells co-cultured” value is reported as “did not prevent the decrease of CD3ζ”.

Same assay, conditions: data not shown
For `NCCC[C@H](N)C(=O)O` [L-ornithine], the “induction of CD3ζ down-regulation by excess of the substance” value was “did not induce CD3ζ down-regulation”. For `NC(N)=O` [urea], the “induction of CD3ζ down-regulation by excess of the substance” value was “did not induce CD3ζ down-regulation”.
